Test system: STING inhibition in human whole blood (IFNα2α production)
Assay: Human whole blood assay (HWBA): cGAMP-stimulated IFNα2α production
Assay type: cell-based
Details: Homo sapiens
Protocol: For the detection of STING inhibition in physiological environment human whole blood was stimulated by the cyclic dinucleotide cGAMP. Pathway activity was monitored by measuring the IFNα2α production.
Assay method: Compounds were delivered as 10 mM DMSO solution and serial diluted and transferred to the 96-well Cell culture Plate (Corning #3595), prefilled with 20 μl OptiMEM (Gibco #11058-021) in each well, using an Echo acoustic dispenser. Typically, 8 concentrations were used with the highest concentration at 10 μM in the final assay volume followed by ~1:5 dilution steps. DMSO concentration was set to 0.1% in the final assay volume. The 96 well assay plate contained 9 test compounds, a reference compound and DMSO in control wells.
Collection of human whole blood from 3 or more healthy donors (male or female, no medication for 7 days, exception contraceptive and thyroxine) as Na-citrate blood (e.g. 3.8% in Monovettes from Sarstedt) is conducted in parallel. Whole blood was kept at room temperature for a maximum of 3 hours after collection until use in the assay.
160 μl of the whole blood samples were transferred to each well of the 96-well assay plates filled with compound/OptiMEM. All assay plates are prepared as duplicates with blood from different donors. Blood plates were kept at room temperature for 60 minutes and continuous shaking with 450 rpm, covered with the lid, but not sealed.
A 10× cGAMP assay solution was diluted from a 2 mM stock solution in 1×HBSS immediately before use at room temperature. 20 μl of the 10× cGAMP/HBSS were added to all compound and all high control wells, whereas HBSS only was added to all low control wells.
After covering assay plates with aera seals and the lid, blood plates were kept at room temperature for 30 minutes and continuous shaking with 450 rpm, followed by an overnight incubation of 22 h at 37° C. in the incubator, without shaking.
For the detection of IFNα-2α in human plasma, the biotinylated capture antibody (Antibody set IFNA2, Meso Scale Diagnostics #B21VH-3, including coating and capture antibody) was diluted 1:17.5 in Diluent 100 (Meso Scale Diagnostics #R50AA-4, according to the manufacturer. U-Plex MSD GOLD 96-well Small Spot Streptavidin SECTOR Plates (Meso Scale Diagnostics #L45SA-5) were coated with 25 μl diluted capture antibody. Coated plates were incubated for 60 min at room temperature under continuous shaking at 700 rpm. MSD IFNα-2α plates were washed three times with 150 μl wash buffer (1×HBSS, 0.05% Tween).
After blocking the plates with 100 μl block solution/well (1×HBSS with 0.2% Tween, 2% BSA) for 60 min at room temperature and continuous shaking at 700 rpm, plates were emptied as dry as possible by dumping just before continuing with the human plasma. Whole Blood assay plates were centrifuged at 1600 rpm for 10 minutes. 25 μl of supernatant was transferred with a pipetting robotics from each whole blood plate to the corresponding IFNα-2α plate. Plates were sealed with microplate seals and kept at room temperature again under continuous shaking at 700 rpm for two hours. Next MSD IFNα-2α plates were washed three times with 150 μl wash buffer (1×HBSS, 0.05% Tween), before adding 25 μl MSD SULFO-TAG IFNα-2α Antibody solution (1:100 diluted in Diluent 3 (Meso Scale Diagnostics #R50AP-2) to each well of the plates. Afterwards plates were sealed with microplate seals and kept at room temperature again under continuous shaking at 700 rpm for two hours. Finally MSD IFNα-2α plates were washed three times with 150 μl wash buffer (1×HBSS, 0.05% Tween). 150 μl 2×Read buffer was added to each well and plates were immediately measured with the MSD Sector S600 Reader using the vendor barcode.
Data evaluation and calculation: For data evaluation and calculation, % control calculation of each well was based on the mean of high (cGAMP stimulated control) and mean of low (unstimulated control) controls by using the following formula: […]

Structure (SMILES)	IC50
Cc1nc2nn(CCN3CCOCC3)cc2cc1-n1nc(-c2cccc3nn(C[C@H](O)c4ccccc4)cc23)c(C(C)C)c1C [Example 1, (1R)-2-[4-(5-methyl-1-{6-methyl-2-[2-(morpholin-4-yl)ethyl]-2H-pyrazolo[3,4-b]pyridin-5-yl}-4-(propan-2-yl)-1H-pyrazol-3-yl)-2H-indazol-2-yl]-1-phenylethan-1-ol]	73 nM
Cc1nc2nn(CCCC#N)cc2cc1-n1nc(-c2cccc3nn(C[C@H](O)c4ccccc4)cc23)c(C(C)C)c1C [Example 2, 4-[5-(3-{2-[(2R)-2-hydroxy-2-phenylethyl]-2H-indazol-4-yl}-5-methyl-4-(propan-2-yl)-1H-pyrazol-1-yl)-6-methyl-2H-pyrazolo[3,4-b]pyridin-2-yl]butanenitrile]	54 nM
Cc1nc2nn(Cc3cccnc3)cc2cc1-n1nc(-c2cccc3nn(C[C@H](O)c4ccccc4)cc23)c(C(C)C)c1C [Example 6, (1R)-2-[4-(5-methyl-1-{6-methyl-2-[(pyridin-3-yl)methyl]-2H-pyrazolo[3,4-b]pyridin-5-yl}-4-(propan-2-yl)-1H-pyrazol-3-yl)-2H-indazol-2-yl]-1-phenylethan-1-ol]	61 nM
Cc1nc2nn(CCCN3CCN(C)CC3)cc2cc1-n1nc(-c2cccc3nn(C[C@H](O)c4ccccc4)cc23)c(C(C)C)c1C [Example 7, (1R)-2-[4-(5-methyl-1-{6-methyl-2-[3-(4-methylpiperazin-1-yl)propyl]-2H-pyrazolo[3,4-b]pyridin-5-yl}-4-(propan-2-yl)-1H-pyrazol-3-yl)-2H-indazol-2-yl]-1-phenylethan-1-ol]	61 nM
Cc1nc2nn(C)cc2cc1-n1nc(-c2cccc3nn(C[C@H](OCCO)c4ccccc4)cc23)c(C(C)C)c1C [Example 8, 2-[(1R)-2-[4-(1-{2,6-dimethyl-2H-pyrazolo[3,4-b]pyridin-5-yl}-5-methyl-4-(propan-2-yl)-1H-pyrazol-3-yl)-2H-indazol-2-yl]-1-phenylethoxy]ethan-1-ol]	62 nM
COc1ccc(Cn2cc3cc(-c4nc(-c5cccc6nn(C[C@H](O)c7ccccc7)cc56)c(C5CC5)n4C)c(C4CC4)nc3n2)cc1 [Example 9, (1R)-2-[4-(5-cyclopropyl-2-{6-cyclopropyl-2-[(4-methoxyphenyl)methyl]-2H-pyrazolo[3,4-b]pyridin-5-yl}-1-methyl-1H-imidazol-4-yl)-2H-indazol-2-yl]-1-phenylethan-1-ol]	63 nM
Cn1c(-c2cc3cn(CCN4CCOCC4)nc3nc2C2CC2)nc(-c2cccc3nn(C[C@H](O)c4ccccc4)cc23)c1C1CC1 [Example 10, (1R)-2-[4-(5-cyclopropyl-2-{6-cyclopropyl-2-[2-(morpholin-4-yl)ethyl]-2H-pyrazolo[3,4-b]pyridin-5-yl}-1-methyl-1H-imidazol-4-yl)-2H-indazol-2-yl]-1-phenylethan-1-ol]	69 nM
Cc1nc2nn(CCCCO)cc2cc1-n1nc(-c2cccc3nn(C[C@H](O)c4ccccc4)cc23)c(C(C)C)c1C [Example 12, 4-[5-(3-{2-[(2R)-2-hydroxy-2-phenylethyl]-2H-indazol-4-yl}-5-methyl-4-(propan-2-yl)-1H-pyrazol-1-yl)-6-methyl-2H-pyrazolo[3,4-b]pyridin-2-yl]butan-1-ol]	71 nM
Cc1c(C(C)C)c(-c2cccc3nn(C[C@H](O)c4ccccc4)cc23)nn1-c1cc2cn(C)nc2nc1C1CCCO1 (stereo partly drawn) [Example 13, (1R)-2-(4-{5-methyl-1-[2-methyl-6-(oxolan-2-yl)-2H-pyrazolo[3,4-b]pyridin-5-yl]-4-(propan-2-yl)-1H-pyrazol-3-yl}-2H-indazol-2-yl)-1-phenylethan-1-ol]	73 nM
Cc1nc2nn(C3CCOC3)cc2cc1-n1nc(-c2cccc3nn(C[C@H](O)c4ccccc4)cc23)c(C(C)C)c1C (stereo partly drawn) [Example 14, (1R)-2-(4-{5-methyl-1-[6-methyl-2-(oxolan-3-yl)-2H-pyrazolo[3,4-b]pyridin-5-yl]-4-(propan-2-yl)-1H-pyrazol-3-yl}-2H-indazol-2-yl)-1-phenylethan-1-ol]	76 nM

More lines, now with the values ahead:

IC50	Structure (SMILES)
77 nM	Cc1c(C(C)C)c(-c2cccc3nn(C[C@H](O)c4ccc(OCCN5CCOCC5)cc4)cc23)nn1-c1cc2cn(C)nc2nc1C1CC1 [Example 15, (1R)-2-[4-(1-{6-cyclopropyl-2-methyl-2H-pyrazolo[3,4-b]pyridin-5-yl}-5-methyl-4-(propan-2-yl)-1H-pyrazol-3-yl)-2H-indazol-2-yl]-1-{4-[2-(morpholin-4-yl)ethoxy]phenyl}ethan-1-ol]
79 nM	COCCn1cc2cc(-n3nc(-c4cccc5nn(C[C@H](O)c6ccccc6)cc45)c(C(C)C)c3C)c(C)nc2n1 [Example 16, (1R)-2-(4-{1-[2-(2-methoxyethyl)-6-methyl-2H-pyrazolo[3,4-b]pyridin-5-yl]-5-methyl-4-(propan-2-yl)-1H-pyrazol-3-yl}-2H-indazol-2-yl)-1-phenylethan-1-ol]
81 nM	COCc1nc2nn(C)cc2cc1-n1nc(-c2cccc3nn(C[C@H](O)c4ccccc4)cc23)c(C(C)C)c1C [Example 17, (1R)-2-(4-{1-[6-(methoxymethyl)-2-methyl-2H-pyrazolo[3,4-b]pyridin-5-yl]-5-methyl-4-(propan-2-yl)-1H-pyrazol-3-yl}-2H-indazol-2-yl)-1-phenylethan-1-ol]
81 nM	Cc1nc2nn(C(C)C)cc2cc1-n1nc(-c2cccc3nn(C[C@H](O)c4ccccc4)cc23)c(C(C)C)c1C [Example 18, (1R)-2-(4-{5-methyl-1-[6-methyl-2-(propan-2-yl)-2H-pyrazolo[3,4-b]pyridin-5-yl]-4-(propan-2-yl)-1H-pyrazol-3-yl}-2H-indazol-2-yl)-1-phenylethan-1-ol]
82 nM	Cc1c(C(C)C)c(-c2cccc3nn(C[C@H](O)c4ccccc4)cc23)nn1-c1cc2cn(C)nc2nc1C(C)O (stereo partly drawn) [Example 19, (1R)-2-(4-{1-[6-(1-hydroxyethyl)-2-methyl-2H-pyrazolo[3,4-b]pyridin-5-yl]-5-methyl-4-(propan-2-yl)-1H-pyrazol-3-yl}-2H-indazol-2-yl)-1-phenylethan-1-ol]
84 nM	CSc1nc2nn(C)cc2cc1-n1nc(-c2cccc3nn(C[C@H](O)c4ccccc4)cc23)c(C(C)C)c1C [Example 20, (1R)-2-(4-{5-methyl-1-[2-methyl-6-(methylsulfanyl)-2H-pyrazolo[3,4-b]pyridin-5-yl]-4-(propan-2-yl)-1H-pyrazol-3-yl}-2H-indazol-2-yl)-1-phenylethan-1-ol]
85 nM	Cc1nc2nn(CCCN3CCCC3=O)cc2cc1-n1nc(-c2cccc3nn(C[C@H](O)c4ccccc4)cc23)c(C(C)C)c1C [Example 21, 1-{3-[5-(3-{2-[(2R)-2-hydroxy-2-phenylethyl]-2H-indazol-4-yl}-5-methyl-4-(propan-2-yl)-1H-pyrazol-1-yl)-6-methyl-2H-pyrazolo[3,4-b]pyridin-2-yl]propyl}pyrrolidin-2-one]
86 nM	CC(C)c1nc2nn(C)cc2cc1-c1nc(-c2cccc3nn(C[S@@+]([O-])c4ccccc4)cc23)c(C2CC2)n1C [Example 22, 2-{[(S)-benzenesulfinyl]methyl}-4-{5-cyclopropyl-1-methyl-2-[2-methyl-6-(propan-2-yl)-2H-pyrazolo[3,4-b]pyridin-5-yl]-1H-imidazol-4-yl}-2H-indazole]
89 nM	Cc1c(C(C)C)c(-c2cccc3nn(C[C@H](O)c4ccccc4)cc23)nn1-c1cc2cn(C)nc2nc1OC(C)C [Example 23, (1R)-2-(4-{5-methyl-1-[2-methyl-6-(propan-2-yloxy)-2H-pyrazolo[3,4-b]pyridin-5-yl]-4-(propan-2-yl)-1H-pyrazol-3-yl}-2H-indazol-2-yl)-1-phenylethan-1-ol]

Source: patent US20260265244A1, “HETEROCYCLIC COMPOUNDS AS STING ANTAGONISTS” (Boehringer Ingelheim International GmbH, priority 2022, published 2026)
